A short description of data set [1]: The drug is tested on Z-024 corresponding to pig gut metagenome with ENA study accession number: PRJEB37062 and ENA sample accession number: ERS12561823 for biotransformation under anaerobic condition. The drug concentrations were measured over 9 timepoints collected between 0 and 24 hours of incubation by liquid-chromatography-coupled mass spectrometry (LC–MS). Conditions: 2 µM.

The nature of data set [2]: The drug is tested on Z-021 corresponding to metagenome with ENA study accession number: PRJEB37062 and ENA sample accession number: ERS12561820 for biotransformation under anaerobic condition. The drug concentrations were measured over 9 timepoints collected between 0 and 24 hours of incubation by liquid-chromatography-coupled mass spectrometry (LC–MS). Conditions: 2 µM.

A short description of data set [3]: The drug is tested on Z-016 corresponding to mouse gut metagenome with ENA study accession number: PRJEB37062 and ENA sample accession number: ERS12561815 for biotransformation under anaerobic condition. The drug concentrations were measured over 9 timepoints collected between 0 and 24 hours of incubation by liquid-chromatography-coupled mass spectrometry (LC–MS). Conditions: 2 µM.

A short description of data set [4]: The drug is tested on Z-006 corresponding to mouse gut metagenome with ENA study accession number: PRJEB37062 and ENA sample accession number: ERS12561806 for biotransformation under anaerobic condition. The drug concentrations were measured over 9 timepoints collected between 0 and 24 hours of incubation by liquid-chromatography-coupled mass spectrometry (LC–MS). Conditions: 2 µM.

Data set [5] can be described thus: The drug is tested on WLS-350 corresponding to human gut metagenome with ENA study accession number: PRJEB37062 and ENA sample accession number: ERS12561789 for biotransformation under anaerobic condition. The drug concentrations were measured over 9 timepoints collected between 0 and 24 hours of incubation by liquid-chromatography-coupled mass spectrometry (LC–MS). The settings on record: 2 µM.

Data set [6] is described as follows: The drug is tested on WLS-220 corresponding to human gut metagenome with ENA study accession number: PRJEB37062 and ENA sample accession number: ERS12561769 for biotransformation under anaerobic condition. The drug concentrations were measured over 9 timepoints collected between 0 and 24 hours of incubation by liquid-chromatography-coupled mass spectrometry (LC–MS). Conditions: 2 µM.

A short description of data set [7]: The drug is tested on WLS-170 corresponding to human gut metagenome with ENA study accession number: PRJEB37062 and ENA sample accession number: ERS12561762 for biotransformation under anaerobic condition. The drug concentrations were measured over 9 timepoints collected between 0 and 24 hours of incubation by liquid-chromatography-coupled mass spectrometry (LC–MS). Conditions: 2 µM.

Data set [8] is described as follows: The drug is tested on WLS-073 corresponding to human gut metagenome with ENA study accession number: PRJEB37062 and ENA sample accession number: ERS12561749 for biotransformation under anaerobic condition. The drug concentrations were measured over 9 timepoints collected between 0 and 24 hours of incubation by liquid-chromatography-coupled mass spectrometry (LC–MS). Conditions: 2 µM.

Data set [9] is described as follows: The drug is tested on WLS-038 corresponding to human gut metagenome with ENA study accession number: PRJEB37062 and ENA sample accession number: ERS12561745 for biotransformation under anaerobic condition. The drug concentrations were measured over 9 timepoints collected between 0 and 24 hours of incubation by liquid-chromatography-coupled mass spectrometry (LC–MS). The settings on record: 2 µM.

A short description of data set [10]: The drug is tested on WLS-027 corresponding to human gut metagenome with ENA study accession number: PRJEB37062 and ENA sample accession number: ERS12561744 for biotransformation under anaerobic condition. The drug concentrations were measured over 9 timepoints collected between 0 and 24 hours of incubation by liquid-chromatography-coupled mass spectrometry (LC–MS). The settings on record: 2 µM.

Data set [11] is described as follows: The drug is tested on WLS-010 corresponding to human gut metagenome with ENA study accession number: PRJEB37062 and ENA sample accession number: ERS12561743 for biotransformation under anaerobic condition. The drug concentrations were measured over 9 timepoints collected between 0 and 24 hours of incubation by liquid-chromatography-coupled mass spectrometry (LC–MS). Conditions: 2 µM.

For data set [12] the following is noted: human gut metagenome, 24 h, 2 µM.
For data set [13] the following is noted: human gut metagenome, 24 h, 2 µM. This is another data set of the same source.
The conditions of data set [14]: human gut metagenome, 24 h, 2 µM. This is another data set of the same source.
The conditions of data set [15]: human gut metagenome, 24 h, 2 µM. The source holds these as a separate data set.
For data set [16] the following is noted: human gut metagenome, 24 h, 2 µM. The source holds these as a separate data set.
The conditions of data set [17]: human gut metagenome, 24 h, 2 µM. The source holds these as a separate data set.
For data set [18] the following is noted: human gut metagenome, 24 h, 2 µM. The source holds these as a separate data set.
For data set [19] the following is noted: human gut metagenome, 24 h, 2 µM. The source holds these as a separate data set.
The conditions of data set [20]: human gut metagenome, 24 h, 2 µM. The source holds these as a separate data set.

The source of these data is ChEMBL document CHEMBL5724914, “Linking interpersonal differences in gut microbiota composition and drug biotransformation activity” (2024).

Molecules are shown by their SMILES.
Also: call rule not given here.

Take `CCCN(CCC)CCc1cccc2c1CC(=O)N2` [ROPINIROLE]: the “Bacterial Biotransformation” value in data set [1] is “Compound NOT metabolized”; in data set [2], “Compound NOT metabolized”; in [3], “Compound NOT metabolized”; in data set [4], “Compound NOT metabolized”; in data set [5], “Compound NOT metabolized”; in [6], “Compound metabolized”. Moreover, the “Bacterial Biotransformation” value is “Compound metabolized” in data set [7]; “Compound NOT metabolized” in data set [8]; “Compound NOT metabolized” in data set [9]; “Compound NOT metabolized” in data set [10]; “Compound NOT metabolized” in data set [11]; “Compound NOT metabolized” in [12]. Moreover, the “Bacterial Biotransformation” value in data set [13] is listed as “Compound NOT metabolized”; in [14], “Compound NOT metabolized”; in [15], “Compound NOT metabolized”; in data set [16], “Compound NOT metabolized”; in data set [17] it was “Compound NOT metabolized”; in data set [18], “Compound metabolized”. Moreover, the “Bacterial Biotransformation” value was “Compound NOT metabolized” in data set [19] and “Compound metabolized” in data set [20].

On to `O=C1CC2(CCCC2)CC(=O)N1CCCCN1CCN(c2ncccn2)CC1` [BUSPIRONE], for which the “Bacterial Biotransformation” value in data set [1] is reported as “Compound NOT metabolized”; in data set [2], “Compound NOT metabolized”; in data set [3], “Compound NOT metabolized”; in data set [4] it was “Compound NOT metabolized”; in data set [5], “Compound metabolized”; in data set [6], “Compound NOT metabolized”. Besides, the “Bacterial Biotransformation” value is reported as “Compound metabolized” in data set [7]; “Compound NOT metabolized” in data set [8]; “Compound NOT metabolized” in data set [9]; “Compound NOT metabolized” in data set [10]; “Compound NOT metabolized” in data set [11]; “Compound NOT metabolized” in [12]. Also, the “Bacterial Biotransformation” value is reported as “Compound metabolized” in data set [13]; “Compound metabolized” in data set [14]; “Compound metabolized” in [15]; “Compound NOT metabolized” in data set [16]; “Compound metabolized” in data set [17]; “Compound metabolized” in data set [18]. Moreover, the “Bacterial Biotransformation” value in [19] and in data set [20] was “Compound metabolized” throughout.

As to `CCN(CC)CCNC(=O)c1cc(S(C)(=O)=O)ccc1OC` [TIAPRIDE], the “Bacterial Biotransformation” value in [1] was “Compound NOT metabolized”; in [2] it was “Compound NOT metabolized”; in data set [3], “Compound NOT metabolized”; in [4], “Compound NOT metabolized”; in data set [5], “Compound NOT metabolized”; in data set [6] it was “Compound metabolized”. The “Bacterial Biotransformation” value in [7], in data set [8], in data set [9], in [10], in [11] and in data set [12] was “Compound NOT metabolized” in each case. Further, the “Bacterial Biotransformation” value in data set [13] is reported as “Compound NOT metabolized”; in data set [14], “Compound metabolized”; in data set [15], “Compound metabolized”; in data set [16], “Compound metabolized”; in data set [17], “Compound NOT metabolized”; in data set [18], “Compound metabolized”. Further, the “Bacterial Biotransformation” value in [19] and in [20] was “Compound NOT metabolized” throughout.

As for `CC(=O)OCC(CCn1cnc2cnc(N)nc21)COC(C)=O` [FAMCICLOVIR], the “Bacterial Biotransformation” value in [1] is “Compound metabolized”; in data set [2] it was “Compound NOT metabolized”; in data set [3], “Compound NOT metabolized”; in data set [4], “Compound metabolized”; in data set [5] it was “Compound metabolized”; in data set [6], “Compound metabolized”. Also, the “Bacterial Biotransformation” value in [7], in data set [8], in data set [9], in data set [10], in data set [11] and in [12] was “Compound metabolized” in each case. Further, the “Bacterial Biotransformation” value in [13], in data set [14], in data set [15], in [16], in data set [17] and in data set [18] was “Compound metabolized” each time. Further, the “Bacterial Biotransformation” value in data set [19] and in [20] was “Compound metabolized” each time.

As to `CCN(C(C)=O)c1cccc(-c2ccnc3c(C#N)cnn23)c1` [ZALEPLON], the “Bacterial Biotransformation” value is recorded as “Compound NOT metabolized” in data set [1]; “Compound NOT metabolized” in data set [2]; “Compound metabolized” in [3]; “Compound NOT metabolized” in data set [4]; “Compound metabolized” in data set [5]; “Compound metabolized” in data set [6]. For the same compound, the “Bacterial Biotransformation” value in data set [7], in [8], in [9], in [10], in [11] and in data set [12] was “Compound metabolized” in each case. Besides, the “Bacterial Biotransformation” value in [13], in [14], in data set [15], in [16], in data set [17] and in data set [18] was “Compound metabolized” throughout. For the same compound, the “Bacterial Biotransformation” value in data set [19] and in data set [20] was “Compound metabolized” in each case.

`C=C[C@H]1CN2CC[C@H]1C[C@H]2[C@H](O)c1ccnc2ccc(OC)cc12.C=C[C@H]1CN2CC[C@H]1C[C@H]2[C@H](O)c1ccnc2ccc(OC)cc12.O.O.O=S(=O)(O)O` [QUININE SULFATE]: the “Bacterial Biotransformation” value is listed as “Compound NOT metabolized” in data set [1]; “Compound NOT metabolized” in [2]; “Compound NOT metabolized” in data set [3]; “Compound NOT metabolized” in [4]; “Compound NOT metabolized” in data set [5]; “Compound metabolized” in data set [6]. Further, the “Bacterial Biotransformation” value in data set [7] is listed as “Compound metabolized”; in data set [8] it was “Compound NOT metabolized”; in [9], “Compound NOT metabolized”; in data set [10], “Compound NOT metabolized”; in data set [11] it was “Compound NOT metabolized”; in data set [12], “Compound NOT metabolized”. Moreover, the “Bacterial Biotransformation” value in data set [13] is reported as “Compound NOT metabolized”; in [14], “Compound metabolized”; in data set [15] it was “Compound NOT metabolized”; in data set [16] it was “Compound metabolized”; in data set [17], “Compound NOT metabolized”; in [18], “Compound metabolized”. Moreover, the results for the “Bacterial Biotransformation” value in data set [19] and in data set [20] were “Compound metabolized” and “Compound NOT metabolized”, respectively.
